Common to all, as to assay: NCI-60 cell line screen, 48 h
The subject of assay [1] is MOLT-4 leukemia.
Assay [2] relates to HT29 colon.
Assay [3] relates to K-562 leukemia.
In assay [4] the test system is CCRF-CEM leukemia.
Assay [5] has as its system UO-31 renal.
Assay [6] relates to NCI-H522 lung.
Assay [7] has as its system OVCAR-4 ovarian.
Assay [8] has as its system MALME-3M melanoma.
Assay [9] has as its system TK-10 renal.
Assay [10] relates to SN12C renal.
Assay [11] concerns SNB-19 CNS.
Assay [12] deals with COLO 205 colon.
Assay [13] has as its system OVCAR-8 ovarian.
Assay [14] concerns IGROV1 ovarian.
Assay [15] relates to MDA-MB-231 breast.
The test system of assay [16] is MDA-MB-435.
Assay [17] relates to U251 CNS.
For assay [18], the system named is HL-60(TB) leukemia.

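Briefly, cells in 96-well plates were exposed to five compound concentrations for 48 h, and endpoints were estimated by linear interpolation. At the TGI there is no net growth.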 Some results are limits rather than exact numbers.

With `N#Cc1sc2nc(/C=C3/C=CC=CC3=O)c(O)n2c1N`, the TGI in [1] is 59.8 µM; in assay [2], above 100 µM; in [3] it was 55.9 µM; in assay [4] it was 74.9 µM; in assay [5], above 100 µM; in [6], above 100 µM. Besides, the TGI in [7], in [8], in [9], in assay [10], in assay [11] and in [12] was above 100 µM in each case. Also, the TGI in assay [13] is above 100 µM; in assay [14], above 100 µM; in assay [15], above 100 µM; in [16], above 100 µM; in [17] it was above 100 µM; in [18], 44.3 µM.
For the compound `C[C@]12CCC(=O)C=C1CC[C@@H]1C2CC[C@]2(C)c3nn(-c4ccc(F)cc4)nc3CC12` (stereo not given in full), the TGI in assay [1], in assay [2], in assay [3], in assay [4], in [5] and in assay [6] was above 100 µM each time. Moreover, the TGI in assay [7], in [8], in [9], in assay [10], in assay [11] and in assay [12] was above 100 µM in each case. The TGI in assay [13], in assay [14], in assay [15], in [16], in assay [17] and in assay [18] was above 100 µM each time.
With `N#CC(NNC(=O)Cc1ccccc1)c1ccccc1O` (stereo not given), the TGI in assay [1] was above 100 µM; in assay [2], above 92.6 µM; in [3], above 100 µM; in assay [4], above 54.9 µM; in [5] it was 25.4 µM; in assay [6], above 41.1 µM. Also, the TGI in assay [7] was above 100 µM; in assay [8], 73.4 µM; in assay [9], above 100 µM; in [10], above 100 µM; in [11], above 80.8 µM; in [12] it was above 100 µM. Moreover, the TGI in assay [13] was 99.2 µM; in assay [14] it was above 100 µM; in assay [15], above 72 µM; in assay [16] it was above 100 µM; in [17], above 92 µM; in assay [18], 36 µM.
On to `NC(CCC(=O)NC(CSC(=O)N(O)c1ccc(Br)cc1)C(=O)NCC(=O)O)C(=O)O` (stereo not given), for which the TGI in assay [1], in assay [2], in assay [3], in assay [4], in [5] and in assay [6] was above 100 µM in each case. Also, the TGI in [7], in [8], in assay [9], in [10], in assay [11] and in [12] was above 100 µM each time. Moreover, the TGI in assay [13] is above 100 µM; in assay [14], above 100 µM; in assay [15], above 50 µM; in assay [16], above 50 µM; in [17] it was above 100 µM; in [18] it was above 100 µM.
As to `O=C(O)c1nc(-c2ccccn2)c(-c2ccccn2)nc1C(=O)O`, the TGI is above 28.3 µM in assay [1]; 8.54 µM in assay [2]; above 100 µM in assay [3]; above 43.1 µM in assay [4]; 8.15 µM in assay [5]; 23.2 µM in assay [6]. The TGI in assay [7] was 12.5 µM; in assay [8], 7.85 µM; in assay [9] it was 15.3 µM; in assay [10], 24.6 µM; in assay [11] it was 19.1 µM; in assay [12] it was 7.75 µM. Besides, the TGI in [13] was 21.2 µM; in assay [14], 21 µM; in assay [15], 30.5 µM; in [16] it was 30.8 µM; in assay [17], 13.3 µM; in [18], 18.3 µM.
Take `COn1cc(C=O)c2ccccc21`: the TGI is above 100 µM in assay [1]; above 100 µM in assay [2]; above 100 µM in [3]; 1.34 µM in assay [4]; above 100 µM in assay [5]; above 100 µM in [6]. The TGI is above 100 µM in assay [7]; above 100 µM in assay [8]; above 93 µM in [9]; above 100 µM in assay [10]; above 100 µM in assay [11]; above 100 µM in assay [12]. The TGI is above 100 µM in assay [13]; above 100 µM in [14]; above 100 µM in assay [15]; 34.9 µM in assay [16]; above 100 µM in assay [17]; 1.52 µM in assay [18].
With `COC(CN(C(=O)c1ccccc1)C1CCC2(SCCS2)c2[nH]c3ccccc3c21)OC` (stereo not given), the TGI in assay [1] was above 100 µM; in [2] it was above 100 µM; in [3], above 100 µM; in assay [4] it was above 100 µM; in [5], above 100 µM; in assay [6], 65.4 µM. Besides, the TGI in [7] is above 100 µM; in [8], above 100 µM; in assay [9] it was above 100 µM; in assay [10], above 100 µM; in assay [11], above 100 µM; in assay [12], 59.3 µM. The TGI is above 100 µM in assay [13]; above 100 µM in assay [14]; above 100 µM in assay [15]; 70.2 µM in assay [16]; above 100 µM in assay [17]; above 100 µM in assay [18].
Take `CC(=O)c1csc2c1C(=O)c1scc(C(C)=O)c1C2=O`: the TGI in assay [1] is 1.13 µM; in [2], 4.61 µM; in assay [3], 4.35 µM; in assay [4], 1.82 µM; in [5], 3.61 µM; in [6], 1.75 µM. The TGI amounted to 1.65 µM in assay [7]; 2.95 µM in assay [8]; 5.82 µM in assay [9]; 3.28 µM in [10]; 3.32 µM in [11]; 3.63 µM in [12]. Also, the TGI in [13] turned out to be 3.09 µM; in assay [14] it was 3.08 µM; in [15], 1.43 µM; in assay [16] it was 0.336 µM; in assay [17], 2.9 µM; in assay [18], 0.43 µM.
Consider `O=C1/C(=C\c2ccc([N+](=O)[O-])o2)SC2N=C(COc3ccc(Cl)cc3)NN12` (stereo not given), for which the TGI in assay [1] is above 100 µM; in assay [2], 44.4 µM; in [3], 27 µM; in assay [4], 5.97 µM; in assay [5], 23 µM; in [6] it was 4.81 µM. For the same compound, the TGI in assay [7] came to 3.43 µM; in assay [8], 6.07 µM; in assay [9], 31.4 µM; in assay [10], 29.6 µM; in assay [11], 31.1 µM; in [12] it was 13.3 µM. The TGI stood at 10.2 µM in assay [13]; 9.82 µM in assay [14]; 15.9 µM in assay [15]; 16.3 µM in [16]; 34.7 µM in assay [17]; 6.03 µM in [18].
Consider `CC12CCC(C(=O)OC1=O)C2(C)C` (stereo not given), for which the TGI in [1], in assay [2], in assay [3], in assay [4], in [5] and in [6] was above 100 µM in each case. Moreover, the TGI in assay [7], in assay [8], in assay [9], in assay [10], in assay [11] and in assay [12] was above 100 µM each time. Also, the TGI in assay [13], in assay [14], in [15], in assay [16], in [17] and in assay [18] was above 100 µM in each case.
As to `COc1cccc(OC)c1/C=C1\OC(=O)c2cccc(OC)c21`, the TGI in assay [1] is above 100 µM; in assay [2] it was above 100 µM; in assay [3] it was above 100 µM; in [4] it was above 100 µM; in assay [5], above 100 µM; in [6] it was 12.2 µM. For the same compound, the TGI in assay [7] was above 100 µM; in assay [8] it was above 95.5 µM; in assay [9], above 100 µM; in assay [10], above 100 µM; in assay [11], above 100 µM; in assay [12], 30.9 µM. The TGI in [13] was above 100 µM; in [14] it was above 100 µM; in assay [15], above 100 µM; in assay [16] it was 2.12 µM; in assay [17], above 100 µM; in assay [18], above 19.7 µM.
In the case of `c1cc(-c2ncc(-c3ccc4c(c3)CCCO4)o2)ccn1`, the TGI in assay [1] is 17.3 µM; in [2], 32 µM; in assay [3], 7.05 µM; in assay [4], 29.3 µM; in [5], above 100 µM; in assay [6], 16.7 µM. Besides, the TGI in assay [7] is above 100 µM; in assay [8], 50.8 µM; in [9] it was 89.8 µM; in assay [10], above 100 µM; in [11], above 100 µM; in assay [12], 91.5 µM. The TGI in assay [13] is 94.9 µM; in assay [14], above 100 µM; in [15], above 100 µM; in [16] it was 15.3 µM; in assay [17], 66.5 µM; in assay [18] it was 16 µM.
In the case of `Cc1cccc(/C=N/NC(=S)NCCc2ccccn2)n1`, the TGI in assay [1] was above 100 µM; in assay [2], above 100 µM; in assay [3], above 100 µM; in [4], above 72.9 µM; in [5], 64.2 µM; in assay [6], above 100 µM. The TGI in assay [7], in assay [8], in assay [9], in assay [10], in assay [11] and in assay [12] was above 100 µM each time. For the same compound, the TGI in assay [13] is above 100 µM; in assay [14], above 100 µM; in assay [15], above 100 µM; in assay [16] it was above 73.7 µM; in [17], 92.1 µM; in [18] it was 41.7 µM.
As for `Cc1cc(C)cc(C(=N)c2ccccc2Cc2cccc3ccccc23)c1`, the TGI was 30.8 µM in assay [1]; 24.5 µM in assay [2]; 48.5 µM in assay [3]; 26.5 µM in assay [4]; above 100 µM in assay [5]; 24.4 µM in assay [6]. In addition, the TGI came out at 33.7 µM in [7]; 33.4 µM in assay [8]; 94.6 µM in assay [9]; 34.8 µM in assay [10]; 43 µM in assay [11]; 52.3 µM in [12]. Also, the TGI in assay [13] was 34.1 µM; in assay [14], 34.9 µM; in assay [15] it was above 100 µM; in assay [16], 32.9 µM; in assay [17], above 100 µM; in assay [18], 33.5 µM.
For the compound `Cc1ccc(S(=O)(=O)C2=Cc3ccc(C(F)(F)F)cc3C2(O)c2cccc(C(F)(F)F)c2)cc1` (stereo not given), the TGI in assay [1] was above 22.6 µM; in [2], 5.14 µM; in assay [3], 6.34 µM; in assay [4], 8.17 µM; in assay [5], 6.11 µM; in [6] it was 3.84 µM. Moreover, the TGI in assay [7] worked out at 4.05 µM; in assay [8], 3.48 µM; in assay [9], 5.96 µM; in [10], 4.47 µM; in assay [11], 16.8 µM; in assay [12] it was 3.43 µM. Also, the TGI turned out to be 4.44 µM in assay [13]; 7.03 µM in assay [14]; 5.06 µM in [15]; 4.28 µM in assay [16]; 3.6 µM in assay [17]; 3.66 µM in [18].

(Values after PubChem BioAssay (NCI).)
